This note sets out measurements from ChEMBL document CHEMBL1153651, “Synthesis and biology of the rigidified glutamate analogue, trans-2-carboxyazetidine-3-acetic acid (t-CAA)” (Bioorg Med Chem Lett, 1996).

The species entered for assay [1] is Rattus norvegicus. Nature of the assay: Compound was tested in vitro for binding affinity against sodium dependent [3H]glu-uptake into rat cortical synaptosomes, using [3H]-glutamate as the radioligand. The class given is functional. The following applies: Brain.
Assay [2] addresses Metabotropic glutamate receptor 1 (Homo sapiens, UniProt Q13255). Nature of the assay: Compound was tested for its agonist activity against mGluR1a receptor in CHO cells. In kind it is functional, cell-based, Cricetulus griseus.
The target of assay [3] is Metabotropic glutamate receptor 4 (Rattus norvegicus, UniProt P31423). Kind of assay: Compound was tested in vitro for binding affinity against mGluR4a metabotropic glutamate receptor, using [3H]L-AP4 as the radioligand.
Chain of Metabotropic glutamate receptor 4 (P31423 whole entry): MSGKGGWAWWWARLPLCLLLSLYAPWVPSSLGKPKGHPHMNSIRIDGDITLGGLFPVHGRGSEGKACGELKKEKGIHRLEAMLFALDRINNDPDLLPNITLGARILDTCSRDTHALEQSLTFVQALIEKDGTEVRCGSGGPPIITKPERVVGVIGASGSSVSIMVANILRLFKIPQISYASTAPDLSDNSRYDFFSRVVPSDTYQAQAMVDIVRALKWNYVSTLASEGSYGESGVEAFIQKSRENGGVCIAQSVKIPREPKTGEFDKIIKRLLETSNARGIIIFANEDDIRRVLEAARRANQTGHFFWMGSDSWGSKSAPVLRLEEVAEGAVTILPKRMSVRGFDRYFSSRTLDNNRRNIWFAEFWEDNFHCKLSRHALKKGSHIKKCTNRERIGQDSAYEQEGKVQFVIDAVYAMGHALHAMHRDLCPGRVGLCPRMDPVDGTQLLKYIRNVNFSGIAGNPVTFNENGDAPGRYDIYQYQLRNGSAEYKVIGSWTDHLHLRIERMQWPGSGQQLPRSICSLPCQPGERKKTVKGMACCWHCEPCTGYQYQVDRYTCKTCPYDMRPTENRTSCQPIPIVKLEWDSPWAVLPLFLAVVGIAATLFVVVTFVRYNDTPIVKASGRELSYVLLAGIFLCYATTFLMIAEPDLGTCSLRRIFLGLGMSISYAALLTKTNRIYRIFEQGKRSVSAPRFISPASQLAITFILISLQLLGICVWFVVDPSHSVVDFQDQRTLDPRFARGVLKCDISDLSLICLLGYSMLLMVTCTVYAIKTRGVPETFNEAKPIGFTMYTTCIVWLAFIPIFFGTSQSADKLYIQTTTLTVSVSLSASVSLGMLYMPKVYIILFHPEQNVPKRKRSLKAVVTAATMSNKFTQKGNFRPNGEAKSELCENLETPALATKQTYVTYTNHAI
In a further assay the target is Glutamate receptor 1 (Rattus norvegicus, UniProt P19490). Nature of the assay: Compound was tested in vitro for binding affinity against Ionotropic glutamate receptor AMPA, using [3H]TCP as the radioligand.
Chain of Glutamate receptor 1 (P19490 whole entry): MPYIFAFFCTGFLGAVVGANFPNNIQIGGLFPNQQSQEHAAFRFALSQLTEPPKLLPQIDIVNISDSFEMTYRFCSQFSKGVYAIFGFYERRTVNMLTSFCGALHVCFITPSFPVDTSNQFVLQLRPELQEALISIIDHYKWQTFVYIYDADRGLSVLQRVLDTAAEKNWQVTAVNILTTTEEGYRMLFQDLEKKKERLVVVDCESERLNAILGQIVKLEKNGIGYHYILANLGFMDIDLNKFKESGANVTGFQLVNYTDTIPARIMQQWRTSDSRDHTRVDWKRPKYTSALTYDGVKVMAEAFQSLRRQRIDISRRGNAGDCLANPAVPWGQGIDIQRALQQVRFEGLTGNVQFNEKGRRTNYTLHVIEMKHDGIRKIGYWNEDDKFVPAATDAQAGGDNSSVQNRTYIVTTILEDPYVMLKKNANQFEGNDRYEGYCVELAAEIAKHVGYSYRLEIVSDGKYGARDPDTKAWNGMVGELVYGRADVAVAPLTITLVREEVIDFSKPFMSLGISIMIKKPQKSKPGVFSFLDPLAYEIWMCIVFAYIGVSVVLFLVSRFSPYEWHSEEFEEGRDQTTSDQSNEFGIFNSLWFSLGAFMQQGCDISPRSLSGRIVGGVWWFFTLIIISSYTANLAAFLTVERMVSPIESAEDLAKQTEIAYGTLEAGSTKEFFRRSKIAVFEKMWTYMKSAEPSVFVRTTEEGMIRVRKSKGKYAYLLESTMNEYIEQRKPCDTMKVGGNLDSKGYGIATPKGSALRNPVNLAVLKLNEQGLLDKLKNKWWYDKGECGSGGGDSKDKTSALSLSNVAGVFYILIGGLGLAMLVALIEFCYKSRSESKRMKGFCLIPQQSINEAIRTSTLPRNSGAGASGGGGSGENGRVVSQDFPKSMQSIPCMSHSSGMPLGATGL
Assay [4] concerns the target T1, Metabotropic glutamate receptor 6 (Homo sapiens, UniProt O15303). Kind of assay: Compound was tested for its agonist activity against mGluR 6 receptor in CHO cells. The class given is functional, cell-based, Cricetulus griseus.
For assay [5], the target named is T1, Metabotropic glutamate receptor 6. Kind of assay: Compound was tested for its agonist activity against mGluR 6 receptor in CHO cells. The class given is functional, cell-based. The following applies: Cricetulus griseus.
The target of a further assay is Glutamate NMDA receptor. Kind of assay: Compound was tested in vitro for binding affinity against NMDA receptor, using [3H]CPP as the radioligand in rat cerebral cortical membranes. In kind it is cell membranes.
In assay [6] the target is T2, Metabotropic glutamate receptor 5 (Homo sapiens, UniProt P41594). Nature of the assay: Compound was tested for its agonist activity against mGluR 5a receptor in CHO cells. The class given is functional, cell-based. The following applies: Cricetulus griseus.
The target in assay [7] is Glutamate receptor ionotropic, kainate 3 (Rattus norvegicus, UniProt P42264). Nature of the assay: Compound was tested in vitro for binding affinity against Ionotropic glutamate receptor kainate using [3H]kainate as the radioligand.
Assay [8] has as its target Metabotropic glutamate receptor 1 (Rattus norvegicus, UniProt P23385). Kind of assay: Compound was tested in vitro for binding affinity against mGluR1a metabotropic glutamate receptor, using [3H]glutamate as the radioligand.
In assay [9] the target is T3, Metabotropic glutamate receptor 2 (Homo sapiens, UniProt Q14416). Kind of assay: Compound was tested for its antagonist activity against mGluR 2 receptor in CHO cells. The class given is functional, cell-based, Cricetulus griseus.
Target sequence in this assay (Q14416 whole entry): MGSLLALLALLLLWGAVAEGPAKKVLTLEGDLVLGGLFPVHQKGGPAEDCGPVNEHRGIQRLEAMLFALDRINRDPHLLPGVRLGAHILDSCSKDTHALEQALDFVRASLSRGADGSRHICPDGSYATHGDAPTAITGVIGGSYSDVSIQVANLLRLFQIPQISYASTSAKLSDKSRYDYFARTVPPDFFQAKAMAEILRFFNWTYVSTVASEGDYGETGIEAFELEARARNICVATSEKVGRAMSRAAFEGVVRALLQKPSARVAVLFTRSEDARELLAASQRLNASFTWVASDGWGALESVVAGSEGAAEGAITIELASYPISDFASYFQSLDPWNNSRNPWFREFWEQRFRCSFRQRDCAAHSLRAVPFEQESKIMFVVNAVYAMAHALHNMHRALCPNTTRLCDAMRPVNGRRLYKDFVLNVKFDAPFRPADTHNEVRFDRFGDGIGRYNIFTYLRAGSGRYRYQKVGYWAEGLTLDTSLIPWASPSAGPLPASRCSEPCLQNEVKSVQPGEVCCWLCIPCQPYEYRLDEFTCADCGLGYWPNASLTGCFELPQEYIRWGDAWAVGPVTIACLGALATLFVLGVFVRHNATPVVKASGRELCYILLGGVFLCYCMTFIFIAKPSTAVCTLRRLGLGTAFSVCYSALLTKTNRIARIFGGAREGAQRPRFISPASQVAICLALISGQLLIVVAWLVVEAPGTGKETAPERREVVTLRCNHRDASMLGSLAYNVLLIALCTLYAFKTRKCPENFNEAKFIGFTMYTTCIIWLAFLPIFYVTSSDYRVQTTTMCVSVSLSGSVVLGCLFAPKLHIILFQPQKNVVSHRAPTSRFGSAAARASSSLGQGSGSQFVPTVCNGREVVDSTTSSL
Assay [10] has as its target T3, Metabotropic glutamate receptor 2. Nature of the assay: Compound was tested for its agonist activity against mGluR 2 receptor in CHO cells. The class given is functional, cell-based, Cricetulus griseus.
Target sequence in this assay (Q14416 whole entry): as above
In assay [11] the target is T1, Metabotropic glutamate receptor 6. Kind of assay: Compound was tested for its antagonist activity against mGluR 6 receptor in CHO cells. In kind it is functional, cell-based, Cricetulus griseus.
The species named for assay [12] is Rattus norvegicus. Kind of assay: Compound was tested in vitro for binding affinity against calcium chloride dependent glutamate uptake site, using [3H]L-AP4 as the radioligand in rat cortical membranes. The class given is functional.
Assay [13] addresses T3, Metabotropic glutamate receptor 2. Kind of assay: Compound was tested for its agonist activity against mGluR 2 receptor in CHO cells. The following applies: Cricetulus griseus. The class given is functional, cell-based.
Target sequence in this assay (Q14416 19-872 limits assumed): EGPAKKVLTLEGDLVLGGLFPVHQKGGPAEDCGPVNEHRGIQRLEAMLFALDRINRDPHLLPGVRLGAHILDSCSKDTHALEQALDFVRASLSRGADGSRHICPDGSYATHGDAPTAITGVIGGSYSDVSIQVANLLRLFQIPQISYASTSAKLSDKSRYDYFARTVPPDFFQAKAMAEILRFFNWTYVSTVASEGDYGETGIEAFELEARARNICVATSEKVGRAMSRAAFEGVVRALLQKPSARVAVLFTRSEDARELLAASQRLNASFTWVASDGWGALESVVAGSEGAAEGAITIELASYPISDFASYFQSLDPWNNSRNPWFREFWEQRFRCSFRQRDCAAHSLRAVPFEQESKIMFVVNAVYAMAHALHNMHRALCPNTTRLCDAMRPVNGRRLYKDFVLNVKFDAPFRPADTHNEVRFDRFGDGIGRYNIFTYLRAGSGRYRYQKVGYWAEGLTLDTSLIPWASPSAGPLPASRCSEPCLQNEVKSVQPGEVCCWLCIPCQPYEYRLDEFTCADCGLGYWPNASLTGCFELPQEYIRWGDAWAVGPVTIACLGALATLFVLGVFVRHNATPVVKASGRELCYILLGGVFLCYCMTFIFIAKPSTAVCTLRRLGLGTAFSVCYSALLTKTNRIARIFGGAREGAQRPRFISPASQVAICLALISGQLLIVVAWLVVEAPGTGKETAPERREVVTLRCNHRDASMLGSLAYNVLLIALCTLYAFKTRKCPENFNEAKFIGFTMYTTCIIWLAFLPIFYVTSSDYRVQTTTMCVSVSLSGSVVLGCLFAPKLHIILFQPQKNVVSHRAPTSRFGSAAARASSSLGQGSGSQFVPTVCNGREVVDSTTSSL
Assay [14] deals with T2, Metabotropic glutamate receptor 5. Nature of the assay: Compound was tested for its agonist activity against mGluR 5a receptor in CHO cells. In kind it is functional, cell-based, Cricetulus griseus.
Assay [15] deals with Glutamate receptor ionotropic, AMPA (Rattus norvegicus, UniProt P19490+P19491+P19492+P19493). Nature of the assay: Compound was tested in vitro for binding affinity against Ionotropic glutamate receptor AMPA, using [3H]AMPA as the radioligand in rat cerebral cortical membranes. The class given is cell membranes.

T1 sequence (O15303 whole entry): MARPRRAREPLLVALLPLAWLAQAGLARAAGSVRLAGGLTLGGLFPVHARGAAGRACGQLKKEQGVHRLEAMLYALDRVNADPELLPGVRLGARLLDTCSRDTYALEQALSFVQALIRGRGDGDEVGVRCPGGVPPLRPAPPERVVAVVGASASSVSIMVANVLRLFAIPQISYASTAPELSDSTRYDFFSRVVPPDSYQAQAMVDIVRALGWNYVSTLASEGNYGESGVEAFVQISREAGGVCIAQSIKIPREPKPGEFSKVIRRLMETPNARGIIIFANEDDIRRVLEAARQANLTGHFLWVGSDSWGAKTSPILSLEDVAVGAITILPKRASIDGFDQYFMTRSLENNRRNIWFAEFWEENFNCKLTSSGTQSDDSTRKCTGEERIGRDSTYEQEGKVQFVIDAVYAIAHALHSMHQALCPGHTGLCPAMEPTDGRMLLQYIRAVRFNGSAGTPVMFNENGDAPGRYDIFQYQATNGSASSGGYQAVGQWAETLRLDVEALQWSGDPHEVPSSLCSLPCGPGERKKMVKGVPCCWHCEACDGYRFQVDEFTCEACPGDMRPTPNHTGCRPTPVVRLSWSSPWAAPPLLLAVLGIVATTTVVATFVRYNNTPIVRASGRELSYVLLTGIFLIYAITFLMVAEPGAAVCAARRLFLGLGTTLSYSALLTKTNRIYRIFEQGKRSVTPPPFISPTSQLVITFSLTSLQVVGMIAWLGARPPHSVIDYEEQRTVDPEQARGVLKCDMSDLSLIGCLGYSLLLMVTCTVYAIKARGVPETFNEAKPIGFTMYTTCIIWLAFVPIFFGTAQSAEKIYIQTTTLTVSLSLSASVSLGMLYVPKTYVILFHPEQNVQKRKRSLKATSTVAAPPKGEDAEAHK

In the case of `O=C(O)C[C@H]1CN[C@@H]1C(=O)O`, the IC50 in the assay listed under Rattus norvegicus [1] is 5 µM; in [3] it was 315 µM; at Glutamate receptor 1, greater than 660 µM; in assay [4], greater than 300 µM; on Glutamate NMDA receptor it was 49 µM; in assay [7] it was 0.7 µM. The IC50 in assay [8] is 12 µM; in assay [9] it was greater than 600 µM; in assay [11], greater than 300 µM; in the assay filed under Rattus norvegicus [12] it was 33 µM; in assay [15], 13 µM. Moreover, the EC50 in [2] is 210 µM; in assay [10], greater than 600 µM; in [14] it was 105 µM. In addition, the Max response in assay [5] worked out at 17%; in assay [6], 95%; in assay [13], 0%. The inhibition in assay [5] (concentration not given here) came to 0%; in [13] (concentration not given here) it was 40%.
